Earlier results, collected in patent US11149062B2, “HDAC inhibitors and methods of treatment using the same” (UWM Research Foundation, Inc., priority 2015, dated 2021).
“Also recorded” adds a separate entry of the source.

Legend:
adult mice = conditions: cited from earlier work
histones H3 and H4 = conditions: 30 min time point; cited from earlier work

Structure (SMILES): CC(/C=C/C(=O)NO)=C\[C@@H](C)C(=O)c1ccc(N(C)C)cc1 [TSA, trichostatin-A]
- object recognition memory 48 h after training (adult mice; single treatment immediately after training, 16.5 mM, chance 15 s): completely intact object recognition memory; also recorded: spent more time than chance
- object recognition memory, treatment delayed 3 h after training (adult mice; treatment delayed for 3 h after training): did not enhance memory
- acetylation of histones H3 and H4 in dorsal hippocampus (histones H3 and H4): increases the acetylation of histones H3 and H4
